ChEMBL document CHEMBL1909046, “DrugMatrix in vitro pharmacology data”

Key:
[1] = DRUGMATRIX: Sodium/nucleoside co-transporter radioligand binding (ligand: nitrobenzylthioinosine); assay type: cell membranes, Cavia porcellus, Dunkin-Hartley, Cerebral cortex, Membrane; conditions: Not Active = under 50% inhibition at 10 µM
[2] = DRUGMATRIX: Calcium Channel Type L, Phenylalkylamine radioligand binding (ligand: [3H] (-)-Desmethoxyverapamil (D-888)); assay type: cell membranes, Rattus norvegicus, Wistar, Brain, Membrane; conditions: Not Active = under 50% inhibition at 10 µM
[3] = target: C-C chemokine receptor type 5 (Homo sapiens, UniProt P51681); assay type: cell membranes, Membrane; conditions: hek293; also: in other assays of this panel Not Active means under 50% inhibition at 10 µM
[4] = target: T1, Angiotensin-converting enzyme (Oryctolagus cuniculus, UniProt P12822); assay type: tissue-based, Lung;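 also: enzymatic inhibition of angiotensin-converting enzyme measured with FAPGG as the substrate; in other assays of this panel Not Active means under 50% inhibition at 10 µM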
T1 sequence (P12822 whole entry): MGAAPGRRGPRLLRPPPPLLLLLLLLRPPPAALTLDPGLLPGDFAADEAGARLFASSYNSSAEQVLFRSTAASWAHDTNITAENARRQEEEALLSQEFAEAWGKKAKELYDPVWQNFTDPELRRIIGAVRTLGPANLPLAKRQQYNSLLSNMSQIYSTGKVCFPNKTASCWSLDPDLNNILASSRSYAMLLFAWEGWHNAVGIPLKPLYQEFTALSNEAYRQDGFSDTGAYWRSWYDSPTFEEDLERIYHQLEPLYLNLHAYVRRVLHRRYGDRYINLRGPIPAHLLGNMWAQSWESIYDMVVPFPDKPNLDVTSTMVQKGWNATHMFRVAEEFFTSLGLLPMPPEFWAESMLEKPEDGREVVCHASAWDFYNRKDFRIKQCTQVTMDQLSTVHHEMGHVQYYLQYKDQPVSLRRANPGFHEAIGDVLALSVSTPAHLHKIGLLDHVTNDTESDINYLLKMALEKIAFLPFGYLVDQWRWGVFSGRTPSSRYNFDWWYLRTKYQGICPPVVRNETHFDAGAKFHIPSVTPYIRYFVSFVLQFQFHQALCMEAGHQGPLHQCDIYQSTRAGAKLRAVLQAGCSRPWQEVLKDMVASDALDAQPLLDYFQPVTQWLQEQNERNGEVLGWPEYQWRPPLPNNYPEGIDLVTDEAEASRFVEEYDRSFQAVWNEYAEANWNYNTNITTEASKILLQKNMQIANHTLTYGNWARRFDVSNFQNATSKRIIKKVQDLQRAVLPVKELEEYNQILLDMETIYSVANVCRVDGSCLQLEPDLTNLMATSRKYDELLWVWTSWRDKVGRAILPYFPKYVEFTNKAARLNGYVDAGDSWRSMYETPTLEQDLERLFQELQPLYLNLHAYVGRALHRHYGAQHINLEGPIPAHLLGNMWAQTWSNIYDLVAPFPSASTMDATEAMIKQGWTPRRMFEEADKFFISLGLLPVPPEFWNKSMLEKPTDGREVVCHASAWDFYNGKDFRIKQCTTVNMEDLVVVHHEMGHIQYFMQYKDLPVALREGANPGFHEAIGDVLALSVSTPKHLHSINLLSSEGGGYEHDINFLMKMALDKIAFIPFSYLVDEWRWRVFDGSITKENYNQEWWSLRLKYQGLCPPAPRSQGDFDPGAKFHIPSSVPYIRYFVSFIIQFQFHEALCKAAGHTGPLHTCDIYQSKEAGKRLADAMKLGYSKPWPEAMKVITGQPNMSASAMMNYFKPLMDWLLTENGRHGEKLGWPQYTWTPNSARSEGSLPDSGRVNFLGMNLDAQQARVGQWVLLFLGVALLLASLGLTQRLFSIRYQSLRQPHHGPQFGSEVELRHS

Caspase-1 = target: T2, Caspase-1 (Homo sapiens, UniProt P29466); design: species or system Escherichia coli;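 also: Caspase-1 enzyme inhibition assay with a peptide substrate; in other assays of this panel Not Active means under 50% inhibition at 10 µM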
T2 sequence (P29466 whole entry): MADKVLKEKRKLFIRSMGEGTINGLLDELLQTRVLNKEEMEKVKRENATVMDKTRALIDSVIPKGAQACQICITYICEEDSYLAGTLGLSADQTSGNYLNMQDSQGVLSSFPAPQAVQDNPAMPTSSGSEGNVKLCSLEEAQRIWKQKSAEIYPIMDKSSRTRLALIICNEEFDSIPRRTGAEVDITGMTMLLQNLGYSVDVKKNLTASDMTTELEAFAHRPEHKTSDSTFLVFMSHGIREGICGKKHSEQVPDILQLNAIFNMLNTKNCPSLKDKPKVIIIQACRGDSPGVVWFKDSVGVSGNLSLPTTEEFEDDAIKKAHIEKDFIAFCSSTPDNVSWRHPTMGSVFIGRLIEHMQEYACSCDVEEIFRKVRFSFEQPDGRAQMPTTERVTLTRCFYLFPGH

Cathepsin G = target: T3, Cathepsin G (Homo sapiens, UniProt P08311); assay type: tissue-based; conditions: neutrophil;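 also: inhibition of Cathepsin G enzyme activity, tested on an AMC-conjugated peptide substrate; in other assays of this panel Not Active means under 50% inhibition at 10 µM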
T3 sequence (P08311 whole entry): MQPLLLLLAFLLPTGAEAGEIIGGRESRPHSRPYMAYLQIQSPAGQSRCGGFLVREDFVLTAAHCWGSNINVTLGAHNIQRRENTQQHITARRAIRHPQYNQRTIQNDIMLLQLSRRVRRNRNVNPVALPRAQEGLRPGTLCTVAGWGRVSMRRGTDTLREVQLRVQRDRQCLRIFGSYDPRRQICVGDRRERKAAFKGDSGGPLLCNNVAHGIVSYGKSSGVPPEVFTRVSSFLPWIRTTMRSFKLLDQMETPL

[5] = target: Voltage-gated inwardly rectifying potassium channel KCNH2 (Homo sapiens, UniProt Q12809); conditions: hek293; also: in other assays of this panel Not Active means under 50% inhibition at 10 µM
Sequence of Voltage-gated inwardly rectifying potassium channel KCNH2 (Q12809 whole entry): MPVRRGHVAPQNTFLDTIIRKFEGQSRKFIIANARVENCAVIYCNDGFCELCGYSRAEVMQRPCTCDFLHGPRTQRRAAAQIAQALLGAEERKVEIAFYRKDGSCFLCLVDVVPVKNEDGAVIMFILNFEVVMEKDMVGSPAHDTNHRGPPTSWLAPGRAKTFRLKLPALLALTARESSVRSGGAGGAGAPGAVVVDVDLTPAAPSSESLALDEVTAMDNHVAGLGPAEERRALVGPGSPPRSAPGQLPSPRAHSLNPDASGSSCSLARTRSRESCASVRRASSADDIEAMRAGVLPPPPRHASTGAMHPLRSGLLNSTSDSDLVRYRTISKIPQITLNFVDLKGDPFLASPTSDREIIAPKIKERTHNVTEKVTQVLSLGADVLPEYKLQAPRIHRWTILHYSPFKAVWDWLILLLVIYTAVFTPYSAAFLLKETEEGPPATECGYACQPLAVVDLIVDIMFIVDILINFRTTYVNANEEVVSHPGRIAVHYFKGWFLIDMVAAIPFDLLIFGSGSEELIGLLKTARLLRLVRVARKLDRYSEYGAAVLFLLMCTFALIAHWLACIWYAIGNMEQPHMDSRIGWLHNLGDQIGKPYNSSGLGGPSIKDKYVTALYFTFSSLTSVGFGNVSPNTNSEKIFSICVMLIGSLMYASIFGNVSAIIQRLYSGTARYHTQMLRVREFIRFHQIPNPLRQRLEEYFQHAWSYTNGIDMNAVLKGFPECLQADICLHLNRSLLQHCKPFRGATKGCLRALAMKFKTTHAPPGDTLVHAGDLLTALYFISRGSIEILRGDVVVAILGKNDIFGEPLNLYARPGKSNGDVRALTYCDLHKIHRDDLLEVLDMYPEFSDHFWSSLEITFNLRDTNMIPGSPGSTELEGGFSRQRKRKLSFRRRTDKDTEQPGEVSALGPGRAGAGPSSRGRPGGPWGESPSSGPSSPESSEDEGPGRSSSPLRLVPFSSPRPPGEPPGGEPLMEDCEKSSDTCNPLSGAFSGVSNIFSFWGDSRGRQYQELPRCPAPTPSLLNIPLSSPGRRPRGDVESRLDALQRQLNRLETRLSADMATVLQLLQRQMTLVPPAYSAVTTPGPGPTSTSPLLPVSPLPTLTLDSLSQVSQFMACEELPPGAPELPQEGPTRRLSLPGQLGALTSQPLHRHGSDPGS

Sequence of C-C chemokine receptor type 5 (P51681 whole entry): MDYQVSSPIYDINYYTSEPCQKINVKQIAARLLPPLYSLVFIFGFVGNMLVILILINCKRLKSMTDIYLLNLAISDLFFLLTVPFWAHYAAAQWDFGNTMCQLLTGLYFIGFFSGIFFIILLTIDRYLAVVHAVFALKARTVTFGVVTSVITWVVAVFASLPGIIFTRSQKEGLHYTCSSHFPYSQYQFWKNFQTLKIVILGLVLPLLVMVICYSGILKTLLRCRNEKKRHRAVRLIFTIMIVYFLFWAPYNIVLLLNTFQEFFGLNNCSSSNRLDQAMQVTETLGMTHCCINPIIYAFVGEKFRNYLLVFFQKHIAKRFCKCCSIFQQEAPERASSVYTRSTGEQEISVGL

COc1c(C)c2c(c(O)c1C/C=C(\C)CCC(=O)O)C(=O)OC2 [MYCOPHENOLIC ACID]
Not Active: IC50 [1] | Ki [1] | IC50 [2] | Ki [2] | IC50 [3] | IC50 [4] | IC50 (Caspase-1) | IC50 (Cathepsin G) | IC50 [5] | Ki [5]

CCCOc1ccccc1-c1nc2nn[nH]c2c(=O)[nH]1 [ZAPRINAST]
Not Active: IC50 [1] | Ki [1] | IC50 [2] | Ki [2] | IC50 [3] | IC50 [4] | IC50 (Caspase-1) | IC50 (Cathepsin G) | IC50 [5] | Ki [5]

C=CCC1(C(C)CCC)C(=O)NC(=O)NC1=O (stereo not given) [SECOBARBITAL]
Not Active: IC50 [1] | Ki [1] | IC50 [2] | Ki [2] | IC50 [3] | IC50 [4] | IC50 (Caspase-1) | IC50 (Cathepsin G) | IC50 [5] | Ki [5]

CC(=O)[C@@]1(O)CC[C@H]2[C@@H]3C[C@H](C)C4=CC(=O)CC[C@]4(C)[C@H]3CC[C@@]21C
Not Active: IC50 [1] | Ki [1] | IC50 [2] | Ki [2] | IC50 [3] | IC50 [4] | IC50 (Caspase-1) | IC50 (Cathepsin G) | IC50 [5] | Ki [5]

N#CC(C#N)=Cc1ccc(O)c(O)c1 [TYRPHOSTIN 23]
Not Active: IC50 [1] | Ki [1] | IC50 [2] | Ki [2] | IC50 [3] | IC50 [4] | IC50 (Caspase-1) | IC50 (Cathepsin G) | IC50 [5] | Ki [5]
